Results on nine molecules are retold here after article PMC6543040, “Structural and biochemical characterization of Rv0187, an O-methyltransferase from Mycobacterium tuberculosis” (Scientific Reports, 2019).

The target in series [1] is T1, Rv0187 (Mycobacterium tuberculosis, UniProt O07431). The experiment in a line: biochemical. Format: binding.
Series [2] addresses T1, Rv0187. Format: biochemical. More on the design: pLATE31-Rv0187 (C-terminal His6-tag).
Series [3] deals with T1, Rv0187. The experiment in a line: co-crystal structure, […] Å. The series is classed as binding. More on the design: C-terminal His6-tag after a TEV cleavage site (pLATE31-Rv0187-TEV).
For a further series, the system named is COc1cc(C(=O)O)cc(O)c1O. Nature of the series: purified protein. The conditions noted are these: SAM; Mg2+.
The test system of series [4] is O=C(O)/C=C/c1ccc(O)c(O)c1. The experiment in a line: purified protein. The conditions noted are these: SAM; Mg2+.
The subject of the next series is O=C(O)c1ccc(O)c(O)c1. Nature of the series: purified protein. As to conditions: SAM; Mg2+.
The series “SEC” deals with the molecule itself. Nature of the series: SEC. Background: Size exclusion chromatography separates by hydrodynamic size, large species first.

T1 sequence (O07431 whole entry): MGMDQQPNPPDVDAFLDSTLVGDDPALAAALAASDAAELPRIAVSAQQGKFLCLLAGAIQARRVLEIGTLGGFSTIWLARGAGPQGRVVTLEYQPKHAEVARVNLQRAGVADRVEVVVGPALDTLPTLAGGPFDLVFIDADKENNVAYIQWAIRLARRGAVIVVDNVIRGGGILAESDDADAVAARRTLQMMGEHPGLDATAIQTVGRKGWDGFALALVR

At Rv0187 [1], `C[S+](CC[C@H](N)C(=O)[O-])C[C@H]1O[C@@H](n2cnc3c(N)ncnc32)[C@H](O)[C@@H]1O` (stereo partly drawn) [SAM, S-adenosyl-l-methionine] returned an equilibrium dissociation constant (Kd) of 9.3 ± 0.7 µM. Regarding `NCCc1ccc(O)c(O)c1` [dopamine], the “in vitro methyltransfer assay, HPLC/LC-MS” value at Rv0187 [2] is “DHA, dopamine and CA were preferentially methylated at the meta position”.

Turning to `O=c1c(O)c(-c2ccc(O)c(O)c2)oc2cc(O)cc(O)c12` [quercetin], the “in vitro methyltransfer assay, HPLC/LC-MS” value on Rv0187 [2] was “Rv0187 was able to methylate flavonoids (luteolin and quercetin), although the precise methylation site could not be assigned”. Same read-out and setting: under `O=Cc1ccc(O)c(O)c1` [DHA, 3,4-dihydroxy-benzaldehyde] stands “DHA, dopamine and CA were preferentially methylated at the meta position”; under `O=c1[nH]c(=O)n([C@@H]2O[C@H](CO)[C@@H](O)[C@H]2O)cc1O` [ho^5U, 5-hydroxyuridine], “methylation of 5-hydroxyuridine (ho^5U) yielded a single product, 5-methoxyuridine (mo^5U)”. Regarding `Nc1ncnc2c1ncn2[C@@H]1O[C@H](CSCC[C@H](N)C(=O)O)[C@@H](O)[C@H]1O` [SAH, S-adenosyl-l-homocysteine], the “co-crystal structure, 1.64 Å” value at Rv0187 [3] was “each subunit exhibits the unambiguous presence of a divalent metal ion and SAH”.

On to `O=C(O)c1cc(O)c(O)c(O)c1` [GA, gallic acid], for which, on Rv0187 [2], the “in vitro methyltransfer assay, HPLC/LC-MS” value was “PCA, 5OMeBA, and GA were more readily modified at the para-hydroxyl group”. For “Rv0187 (Mycobacterium tuberculosis H37Rv)”, the Km with COc1cc(C(=O)O)cc(O)c1O was 30 ± 4 µM; in series [4], 490 ± 170 µM; with O=C(O)c1ccc(O)c(O)c1 it was 150 ± 20 µM.

B1: Rv0187 fused with a C-terminal His6-tag (pLATE31-Rv0187 construct) (enzyme)
chain: MDQQPNPPDVDAFLDSTLVGDDPALAAALAASDAAELPRIAVSAQQGKFLCLLAGAIQARRVLEIGTLGGFSTIWLARGAGPQGRVVTLEYQPKHAEVARVNLQRAGVADRVEVVVGPALDTLPTLAGGPFDLVFIDADKENNVAYIQWAIRLARRGAVIVVDNVIRGGGILAESDDADAVAARRTLQMMGEHPGLDATAIQTVGRKGWDGFALALVR
notes: also called MTB Rv0187; C-terminal His6-tagged construct; not shown: His6, C-terminal, kept
Take B1: the “stoichiometry N” value in the series “SEC” is 2.

For orientation: Kd means the equilibrium constant for the complex coming apart. Low values mean tighter binding, high ones weaker binding. Broadly, the Km is the concentration of substrate that gives half-maximal velocity. What is called stoichiometry N is the number of molecules, sites or subunits per partner or assembly.
